{
  "source": "paper PMC11672294",
  "about": "“The Antipsychotic Drug Aripiprazole Suppresses Colorectal Cancer by Targeting LAMP2a to Induce RNH1/miR‐99a/mTOR‐Mediated Autophagy and Apoptosis” (Advanced Science, 2024)",
  "note": "Counter-ions that a name gives are not always drawn.",
  "data": [
    {"test_system": "HT29", "settings": "72 h, relative to DMSO, 10 µM, Relative cell viability (%)", "from_the_text": "(§1) To investigate the key signaling pathways and biological processes involved in CRC progression, we analyzed the National Center for Biotechnology Information Gene Expression Omnibus (GEO) dataset GSE115313, which included 42 CRC and paired normal tissues (Figure 1A). […] Next, we performed an Annexin V‐fluorescein isothiocyanate (FITC)/propidium iodide (PI) staining assay to determine the effect of aripiprazole on apoptosis in CRC cells. […] A) Principal component analysis of GEO dataset (GSE115313), which includes 42 CRC and paired normal tissues. B) Gene Ontology pathway analysis of the DEPs between CRC and paired normal tissues. […] D) Schematic diagram for identifying anticancer drugs amongst an US Food and Drug Administration‐approved small‐molecule library (616 compounds) using WST‐1 assay. E) HT29 cells were treated with the 616 drugs (10 µM) individually or with dimethyl sulfoxide for 72 h, followed by WST‐1 assay. […] J) Mice bearing HT29‐derived tumor xenografts were intragastrically administered with aripiprazole (10 or 20 mg kg^−1) once every 2 d, n = 6 mice/group. […] Bars, SD; ^* p < 0.05; ^** p < 0.01; ^*** p < 0.001; ns, no significant difference. The WST‐1 Cell Proliferation and Cytotoxicity Assay Kit (Beyotime Biotechnology, Shanghai, China) was used to measure cell viability, as described previously.^[ [10] ^] CRC cells were seeded into 96‐well plates and treated with different drug concentrations. Following that, WST‐1 was added to the plate and incubated with the cells for 2 h, at 37 °C. Absorbance at the wavelength of 450 nm was measured using an automated microplate spectrophotometer (BioTek Instruments, Winooski, VT, USA).", "units": {"Relative cell viability (%)": "%"}, "values": [
      {"smiles": "N#CC[C@H](C1CCCC1)n1cc(-c2ncnc3[nH]ccc23)cn1", "note": "[S-Ruxolitinib (INCB018424)]", "Relative cell viability (%)": 98.54},
      {"smiles": "COc1cc2nc(N3CCN(C(=O)C4CCCO4)CC3)nc(N)c2cc1OC", "note": "(centres unmarked) [Terazosin HCl]", "Relative cell viability (%)": 142.1},
      {"smiles": "CCOC(=O)C1=C(COCCN)NC(C)=C(C(=O)OC)C1c1ccccc1Cl", "note": "(centres unmarked) [Amlodipine]", "Relative cell viability (%)": 88.54},
      {"smiles": "CC(C)NCC(O)COc1ccc(CCOCC2CC2)cc1", "note": "(centres unmarked) [Betaxolol hydrochloride (Betoptic)]", "Relative cell viability (%)": 100.8},
      {"smiles": "CCN(C)C(=O)Oc1cccc([C@H](C)N(C)C)c1", "note": "[Rivastigmine Tartrate]", "Relative cell viability (%)": 125}
    ]},
    {"test_system": "HT29", "settings": "72 h, relative to DMSO; 10 µM", "from_the_text": "as §1", "units": {"Relative cell viability (%)": "%"}, "values": [
      {"smiles": "Cc1c(-c2cnccn2)ssc1=S", "note": "[Oltipraz]", "Relative cell viability (%)": 84.19},
      {"smiles": "Nc1ccc(S(=O)(=O)Nc2ncccn2)cc1", "note": "[Sulfadiazine]", "Relative cell viability (%)": 85.59},
      {"smiles": "Cc1cccc(N(C)C(=S)Oc2ccc3ccccc3c2)c1", "note": "[Tolnaftate]", "Relative cell viability (%)": 126.1},
      {"smiles": "CC(C)OC(=O)[C@H](C)N[P@](=O)(OC[C@H]1O[C@@H](n2ccc(=O)[nH]c2=O)[C@](C)(F)[C@@H]1O)Oc1ccccc1", "note": "[Sofosbuvir (PSI-7977, GS-7977)]", "Relative cell viability (%)": 121.8},
      {"smiles": "O=C(O)c1cc(=O)[nH]c(=O)[nH]1", "note": "[Orotic acid (6-Carboxyuracil)]", "Relative cell viability (%)": 101.4},
      {"smiles": "CC(C)C[C@H](NC(=O)[C@H](CCc1ccccc1)NC(=O)CN1CCOCC1)C(=O)N[C@@H](Cc1ccccc1)C(=O)N[C@@H](CC(C)C)C(=O)[C@@]1(C)CO1", "note": "[Carfilzomib (PR-171)]", "Relative cell viability (%)": 15.53},
      {"smiles": "C[C@]12CC[C@H](O)CC1=CC[C@@H]1[C@@H]2CC[C@]2(C)C(n3cnc4ccccc43)=CC[C@@H]12", "note": "[Galeterone]", "Relative cell viability (%)": 25.73},
      {"smiles": "CCCCCCNC(=O)n1cc(F)c(=O)[nH]c1=O", "note": "[Carmofur]", "Relative cell viability (%)": 24.45},
      {"smiles": "C=CC(=O)N1CCC[C@@H](n2nc(-c3ccc(Oc4ccccc4)cc3)c3c(N)ncnc32)C1", "note": "[Ibrutinib (PCI-32765)]", "Relative cell viability (%)": 53.4},
      {"smiles": "CCc1c2c(nc3ccc(OC(=O)N4CCC(N5CCCCC5)CC4)cc13)-c1cc3c(c(=O)n1C2)COC(=O)[C@]3(O)CC", "note": "[Irinotecan HCl Trihydrate]", "Relative cell viability (%)": 113.8},
      {"smiles": "CC(C(=O)O)c1ccc(C(=O)c2cccs2)cc1", "note": "(centres unmarked) [Suprofen]", "Relative cell viability (%)": 93.22},
      {"smiles": "CC(C)Nc1cc(-c2c[nH]c(C(=O)N[C@H](CO)c3cccc(Cl)c3)c2)c(Cl)cn1", "note": "[Ulixertinib (BVD-523, VRT752271)]", "Relative cell viability (%)": 30.34},
      {"smiles": "Cc1cccc(Cc2c[nH]cn2)c1C", "note": "[Detomidine HCl]", "Relative cell viability (%)": 118.5},
      {"smiles": "COc1nc(N)nc2c1ncn2[C@@H]1O[C@H](CO)[C@@H](O)[C@@H]1O", "note": "[Nelarabine]", "Relative cell viability (%)": 86.76},
      {"smiles": "N=C(N)NC(=O)Cc1c(Cl)cccc1Cl", "note": "[Guanfacine Hydrochloride]", "Relative cell viability (%)": 129.1},
      {"smiles": "CC(C)C(=O)Oc1ccc(CO)cc1[C@H](CCN(C(C)C)C(C)C)c1ccccc1", "note": "[Fesoterodine Fumarate]", "Relative cell viability (%)": 112.6},
      {"smiles": "NCCS", "note": "[Cysteamine HCl]", "Relative cell viability (%)": 89.39},
      {"smiles": "Cc1c(C(=O)Nc2ccc(N3C[C@@H](C)O[C@@H](C)C3)nc2)cccc1-c1ccc(OC(F)(F)F)cc1", "note": "[LDE225 (NVP-LDE225,Erismodegib)]", "Relative cell viability (%)": 111.4},
      {"smiles": "CCCCCCCC(=O)N[C@H](CN1CCCC1)[C@H](O)c1ccc2c(c1)OCCO2", "note": "[Eliglustat Tartrate]", "Relative cell viability (%)": 81.62},
      {"smiles": "Cc1ccc(-n2nccn2)c(C(=O)N2CCN(c3nc4cc(Cl)ccc4o3)CC[C@H]2C)c1", "note": "[Suvorexant (MK-4305)]", "Relative cell viability (%)": 90.6},
      {"smiles": "Cc1cccc(C(C)c2cnc[nH]2)c1C", "note": "(centres unmarked) [Medetomidine HCl]", "Relative cell viability (%)": 57.77},
      {"smiles": "NC(=O)c1cc(N2CC2)c([N+](=O)[O-])cc1[N+](=O)[O-]", "note": "[CB1954]", "Relative cell viability (%)": 115},
      {"smiles": "CCCCOc1cc(C(=O)OCCN(CC)CC)ccc1N", "note": "[Oxybuprocaine HCl]", "Relative cell viability (%)": 56.67},
      {"smiles": "C#CCN[C@@H]1CCc2ccccc21", "note": "[Rasagiline Mesylate]", "Relative cell viability (%)": 103.1},
      {"smiles": "CS(=O)(=O)CCNCc1ccc(-c2ccc3ncnc(Nc4ccc(OCc5cccc(F)c5)c(Cl)c4)c3c2)o1", "note": "[Lapatinib]", "Relative cell viability (%)": 94.3},
      {"smiles": "Cc1cc(Nc2ncc(Cl)c(Nc3ccccc3S(=O)(=O)C(C)C)n2)c(OC(C)C)cc1C1CCNCC1", "note": "[LDK378]", "Relative cell viability (%)": 0},
      {"smiles": "C=CC(=O)Nc1cccc(Nc2nc(Nc3ccc(N4CCN(C(C)=O)CC4)cc3OC)ncc2C(F)(F)F)c1", "note": "[CO-1686 (AVL-301)]", "Relative cell viability (%)": 16.24},
      {"smiles": "CCC1(c2ccccc2)C(=O)NCNC1=O", "note": "[Primidone]", "Relative cell viability (%)": 178.2},
      {"smiles": "CCCNC(=O)NS(=O)(=O)c1ccc(Cl)cc1", "note": "[Chlorpropamide]", "Relative cell viability (%)": 79.39},
      {"smiles": "CC(C)[C@H]1C(=O)N[C@@H](CCCN=C(N)N)C(=O)NCC(=O)N[C@@H](CC(=O)O)C(=O)N[C@H](Cc2ccccc2)C(=O)N1C", "note": "[Cilengitide]", "Relative cell viability (%)": 61.11},
      {"smiles": "O=C[C@H](O)[C@@H](O)[C@H](O)CO", "note": "[Xylose]", "Relative cell viability (%)": 114.9},
      {"smiles": "CC(C)(Oc1ccc(Cl)cc1)C(=O)O", "note": "[Clofibric Acid]", "Relative cell viability (%)": 90.303},
      {"smiles": "Cn1nnc2c(C(N)=O)ncn2c1=O", "note": "[Temozolomide]", "Relative cell viability (%)": 86.76},
      {"smiles": "OCCOc1ccc(/C(=C(/CCCl)c2ccccc2)c2ccccc2)cc1", "note": "[Ospemifene]", "Relative cell viability (%)": 80.303},
      {"smiles": "Nc1nc(O)c2ncn(COC(CO)CO)c2n1", "note": "[Ganciclovir]", "Relative cell viability (%)": 103.4},
      {"smiles": "CCN(CC)CCNC(=O)c1ccc(N)cc1", "note": "[Procainamide HCl]", "Relative cell viability (%)": 73.94},
      {"smiles": "C/C(O)=C(\\C#N)C(=O)Nc1ccc(C(F)(F)F)cc1", "note": "[Teriflunomide]", "Relative cell viability (%)": 75.76},
      {"smiles": "CC#CCn1c(N2CCC[C@@H](N)C2)nc2c1c(=O)n(Cc1nc(C)c3ccccc3n1)c(=O)n2C", "note": "[Linagliptin]", "Relative cell viability (%)": 66.5},
      {"smiles": "CN(C)C(=O)COC(=O)Cc1ccc(OC(=O)c2ccc(NC(=N)N)cc2)cc1", "note": "[Camostat Mesilate]", "Relative cell viability (%)": 140.8},
      {"smiles": "CC[C@H]1[C@@H](O)[C@@H]2[C@H](CC[C@]3(C)[C@@H]([C@H](C)CCC(=O)O)CC[C@@H]23)[C@@]2(C)CC[C@@H](O)C[C@@H]12", "note": "[Obeticholic Acid]", "Relative cell viability (%)": 111.1},
      {"smiles": "CCOC(=O)C1=C(C)NC(C)=C(C(=O)OCC)C1c1ccccc1/C=C/C(=O)OC(C)(C)C", "note": "[Lacidipine]", "Relative cell viability (%)": 79.32},
      {"smiles": "COc1ccccc1OCC(O)CO", "note": "(centres unmarked) [Guaifenesin]", "Relative cell viability (%)": 74.15},
      {"smiles": "O=C(/C=C/C=C/c1ccc2c(c1)OCO2)N1CCCCC1", "note": "[Piperine]", "Relative cell viability (%)": 104.9},
      {"smiles": "Cc1ccc(Nc2nccc(N(C)c3ccc4c(C)n(C)nc4c3)n2)cc1S(N)(=O)=O", "note": "[Pazopanib]", "Relative cell viability (%)": 46.12},
      {"smiles": "[H]/N=C(/N)NS(=O)(=O)c1ccc(N)cc1", "note": "[Sulfaguanidine]", "Relative cell viability (%)": 70.303},
      {"smiles": "N=C(N)c1ccc2cc(OC(=O)c3ccc(N=C(N)N)cc3)ccc2c1", "note": "[Nafamostat Mesylate]", "Relative cell viability (%)": 66.51},
      {"smiles": "CC(=O)N1CCN(c2ccc(OC[C@@H]3CO[C@@](Cn4ccnc4)(c4ccc(Cl)cc4Cl)O3)cc2)CC1", "note": "(racemic) [Ketoconazole]", "Relative cell viability (%)": 43.15},
      {"smiles": "CN(C)CCOc1ccc(/C(=C(/CCCl)c2ccccc2)c2ccccc2)cc1", "note": "[Toremifene Citrate]", "Relative cell viability (%)": 34.75},
      {"smiles": "N#C[C@@H]1C[C@@H]2C[C@@H]2N1C(=O)[C@@H](N)C12CC3CC(CC(O)(C3)C1)C2", "note": "[Saxagliptin hydrate]", "Relative cell viability (%)": 117.5},
      {"smiles": "O=C(O)c1cc(-c2ccccc2)nc2ccccc12", "note": "[Cinchophen]", "Relative cell viability (%)": 89.39},
      {"smiles": "O=c1[nH]c(=O)n([C@H]2C[C@H](O)[C@@H](CO)O2)cc1F", "note": "[Floxuridine]", "Relative cell viability (%)": 44.7},
      {"smiles": "CCOC(=O)[C@H](CCc1ccccc1)N[C@@H](C)C(=O)N1[C@H](C(=O)O)C[C@@H]2CCC[C@@H]21", "note": "[Ramipril]", "Relative cell viability (%)": 75.42},
      {"smiles": "O=C(O)CCCN1CCC(O[C@@H](c2ccc(Cl)cc2)c2ccccn2)CC1", "note": "[Bepotastine Besilate]", "Relative cell viability (%)": 89.81}
    ]},
    {"test_system": "HT29", "settings": "ht29 cells, 72 h, 10 µM", "from_the_text": "as §1", "units": {"Relative cell viability (%)": "%"}, "values": [
      {"smiles": "O=C(Nc1nc2cccc(-c3ccc(CN4CCS(=O)(=O)CC4)cc3)n2n1)C1CC1", "note": "[Filgotinib (GLPG0634)]", "Relative cell viability (%)": 50.85}
    ]}
  ]
}
